Assay results taken from article PMC12420824, “Discovery of a selective alpha-kinase 1 inhibitor for the rare genetic disease ROSAH syndrome” (Nature Communications, 2025).
Several values for one entry are separate records, joined by “and”; a condition that tells them apart may be missing. Equal values may be shown once.

Columns and labels:
DYRK1B = DYRK1B (Homo sapiens, UniProt Q9Y463); test: HotSpot kinase assay; details: read-out: % Enzyme Activity (relative to DMSO control), 10 uM
Source text: (§1) Additionally, a 10-dose dilution series of staurosporine and other enzyme-appropriate compounds were included as positive control inhibitors.

CK1g2 = CK1g2 (Homo sapiens, UniProt P78368); test: HotSpot kinase assay; details: read-out: % Enzyme Activity (relative to DMSO control), 10 uM
MAPKAPK5/PRAK = MAPKAPK5/PRAK (Homo sapiens, UniProt Q8IW41); test: HotSpot kinase assay; details: read-out: % Enzyme Activity (relative to DMSO control), 10 uM
BRK = BRK (Homo sapiens, UniProt Q13882); test: HotSpot kinase assay; details: read-out: % Enzyme Activity (relative to DMSO control), 10 uM
Source text: as §1

KDR/VEGFR2 = KDR/VEGFR2 (Homo sapiens, UniProt P35968); test: HotSpot kinase assay; details: read-out: % Enzyme Activity (relative to DMSO control), 10 uM
SIK1 = SIK1 (Homo sapiens, UniProt P57059); test: HotSpot kinase assay; details: read-out: % Enzyme Activity (relative to DMSO control), 10 uM
MSSK1/STK23 = MSSK1/STK23 (Homo sapiens, UniProt Q9UPE1); test: HotSpot kinase assay; details: read-out: % Enzyme Activity (relative to DMSO control), 10 uM
MLK2/MAP3K10 = MLK2/MAP3K10 (Homo sapiens, UniProt Q02779); test: HotSpot kinase assay; details: read-out: % Enzyme Activity (relative to DMSO control), 10 uM
Source text: as §1

CAMKK1 = CAMKK1 (Homo sapiens, UniProt Q8N5S9); test: HotSpot kinase assay; details: read-out: % Enzyme Activity (relative to DMSO control), 10 uM
Source text: as §1

ERK7/MAPK15 = ERK7/MAPK15 (Homo sapiens, UniProt Q8TD08); test: HotSpot kinase assay; details: read-out: % Enzyme Activity (relative to DMSO control), 10 uM
Source text: as §1

[1] = Pharmacokinetic analyses, oral once daily for 10 days; details: for CAVG: 10th daily dose; for concentration at 0 h / concentration at 0.5 h / concentration at 1 h / concentration at 2 h / concentration at 4 h / concentration at 6 h / concentration at 8 h / concentration at 12 h / concentration at 24 h / AUC / CL/F / Cmax / Tmax / Vd/F / half-life: male, C57BL/6J, mouse, plasma; for concentration at 0 h / concentration at 0.5 h / concentration at 1 h / concentration at 2 h / concentration at 4 h / concentration at 6 h / concentration at 8 h / concentration at 12 h / concentration at 24 h: oral, DF-003 Conc. in plasma; for concentration at 0 h: 0 hours after 10th dosing; for concentration at 0.5 h: 0.5 hours after 10th dosing; for concentration at 1 h: 1 hour after 10th dosing; for concentration at 2 h: 2 hours after 10th dosing; for concentration at 4 h: 4 hours after 10th dosing; for concentration at 6 h: 6 hours after 10th dosing; for concentration at 8 h: 8 hours after 10th dosing; for concentration at 12 h: 12 hours after 10th dosing; for concentration at 24 h: 24 hours after 10th dosing; for AUC / CL/F / Cmax / Tmax / Vd/F / half-life: po
Procedure: Mice were housed in a specific pathogen-free (SPF) animal facility at Drug Farm (Shanghai, China) in individually ventilated cages on a 12 h light/dark cycle with a bedding of wood shavings and ad libitum access to rodent chow. […] Six 8 week-old male C57BL/6J mice from Zhejiang Vital River Laboratory Animal Technology Co., Ltd. (Zhejiang, China) were randomly assigned to 2 groups (3 animals/group). […] The oral dosing volume for all animals was 10 mL/kg body weight. Drinking water and certified rodent diet were available to animals ad libitum, except that animals were fasted 16 h prior to the last administration until 4 h after the last dosing. Blood samples at 0 (right before the last dosing), 0.5, 1, 2, 4, 6, 8, 12, and 24 h after the 10th dosing were collected from the tail vein and transferred into tubes containing K2-EDTA. The tubes were gently inverted several times to ensure mixing and immediately placed on wet ice. Plasma was obtained by centrifugation at 3200 × g at 4 °C for 10 min and stored at ≤ -60 °C until subsequent analysis. Twenty-four hours after the 10th dosing, the animals were euthanized by CO2 inhalation.

JNK1 = JNK1 (Homo sapiens, UniProt P45983); test: HotSpot kinase assay; details: read-out: % Enzyme Activity (relative to DMSO control), 10 uM
Source text: as §1

PIM2 = PIM2 (Homo sapiens, UniProt Q9P1W9); test: HotSpot kinase assay; details: read-out: % Enzyme Activity (relative to DMSO control), 10 uM
Source text: as §1

FGFR3 = FGFR3 (Homo sapiens, UniProt P22607); test: HotSpot kinase assay; details: read-out: % Enzyme Activity (relative to DMSO control), 10 uM
Source text: as §1

IRR/INSRR = IRR/INSRR (Homo sapiens, UniProt P14616); test: HotSpot kinase assay; details: read-out: % Enzyme Activity (relative to DMSO control), 10 uM
Source text: as §1

BMPR2 = BMPR2 (Homo sapiens, UniProt Q13873); test: HotSpot kinase assay; details: read-out: % Enzyme Activity (relative to DMSO control), 10 uM
MSK2/RPS6KA4 = MSK2/RPS6KA4 (Homo sapiens, UniProt O75676); test: HotSpot kinase assay; details: read-out: % Enzyme Activity (relative to DMSO control), 10 uM
Source text: as §1

AKT2 = AKT2 (Homo sapiens, UniProt P31751); test: HotSpot kinase assay; details: read-out: % Enzyme Activity (relative to DMSO control), 10 uM
Source text: as §1

PBK/TOPK = PBK/TOPK (Homo sapiens, UniProt Q96KB5); test: HotSpot kinase assay; details: read-out: % Enzyme Activity (relative to DMSO control), 10 uM
Source text: as §1

DMPK = DMPK (Homo sapiens, UniProt Q09013); test: HotSpot kinase assay; details: read-out: % Enzyme Activity (relative to DMSO control), 10 uM
Source text: as §1

TAOK3/JIK = TAOK3/JIK (Homo sapiens, UniProt Q9H2K8); test: HotSpot kinase assay; details: read-out: % Enzyme Activity (relative to DMSO control), 10 uM
GRK7 = GRK7 (Homo sapiens, UniProt Q8WTQ7); test: HotSpot kinase assay; details: read-out: % Enzyme Activity (relative to DMSO control), 10 uM
Source text: as §1

LIMK2 = LIMK2 (Homo sapiens, UniProt P53671); test: HotSpot kinase assay; details: read-out: % Enzyme Activity (relative to DMSO control), 10 uM
Source text: as §1

MEK5 = MEK5 (Homo sapiens, UniProt Q13163); test: HotSpot kinase assay; details: read-out: % Enzyme Activity (relative to DMSO control), 10 uM
Source text: as §1

MNK2 = MNK2 (Homo sapiens, UniProt Q9HBH9); test: HotSpot kinase assay; details: read-out: % Enzyme Activity (relative to DMSO control), 10 uM
PIM3 = PIM3 (Homo sapiens, UniProt Q86V86); test: HotSpot kinase assay; details: read-out: % Enzyme Activity (relative to DMSO control), 10 uM
Source text: as §1

MARK1 = MARK1 (Homo sapiens, UniProt Q9P0L2); test: HotSpot kinase assay; details: read-out: % Enzyme Activity (relative to DMSO control), 10 uM
DDR1 = DDR1 (Homo sapiens, UniProt Q08345); test: HotSpot kinase assay; details: read-out: % Enzyme Activity (relative to DMSO control), 10 uM
Source text: as §1

HCK = HCK (Homo sapiens, UniProt P08631); test: HotSpot kinase assay; details: read-out: % Enzyme Activity (relative to DMSO control), 10 uM
RIPK5 = RIPK5 (Homo sapiens, UniProt Q6XUX3); test: HotSpot kinase assay; details: read-out: % Enzyme Activity (relative to DMSO control), 10 uM
Source text: as §1

PKCepsilon = PKCepsilon (Homo sapiens, UniProt Q02156); test: HotSpot kinase assay; details: read-out: % Enzyme Activity (relative to DMSO control), 10 uM
Source text: as §1

AMPK (A2/B1/G3) = AMPK (A2/B1/G3) (Homo sapiens, UniProt P54646); test: HotSpot kinase assay; details: read-out: % Enzyme Activity (relative to DMSO control), 10 uM
Source text: as §1

[2] = 3 mg/kg, 3 mg/kg, individual animals
[3] = 5 mg/kg, 5 mg/kg, individual animals

Sequence of MEK5 (Q13163 whole entry): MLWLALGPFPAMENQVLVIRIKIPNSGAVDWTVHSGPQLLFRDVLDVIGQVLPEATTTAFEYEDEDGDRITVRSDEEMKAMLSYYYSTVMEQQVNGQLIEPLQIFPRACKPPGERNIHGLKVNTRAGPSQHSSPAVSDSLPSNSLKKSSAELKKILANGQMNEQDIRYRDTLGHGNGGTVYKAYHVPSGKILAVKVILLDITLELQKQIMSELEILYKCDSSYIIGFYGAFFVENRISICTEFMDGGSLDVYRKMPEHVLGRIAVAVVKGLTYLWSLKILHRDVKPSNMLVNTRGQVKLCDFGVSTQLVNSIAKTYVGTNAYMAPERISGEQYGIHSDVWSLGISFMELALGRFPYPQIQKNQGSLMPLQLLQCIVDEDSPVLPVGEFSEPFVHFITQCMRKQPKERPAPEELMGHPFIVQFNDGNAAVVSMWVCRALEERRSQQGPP
Sequence of KDR/VEGFR2 (P35968 20-1356): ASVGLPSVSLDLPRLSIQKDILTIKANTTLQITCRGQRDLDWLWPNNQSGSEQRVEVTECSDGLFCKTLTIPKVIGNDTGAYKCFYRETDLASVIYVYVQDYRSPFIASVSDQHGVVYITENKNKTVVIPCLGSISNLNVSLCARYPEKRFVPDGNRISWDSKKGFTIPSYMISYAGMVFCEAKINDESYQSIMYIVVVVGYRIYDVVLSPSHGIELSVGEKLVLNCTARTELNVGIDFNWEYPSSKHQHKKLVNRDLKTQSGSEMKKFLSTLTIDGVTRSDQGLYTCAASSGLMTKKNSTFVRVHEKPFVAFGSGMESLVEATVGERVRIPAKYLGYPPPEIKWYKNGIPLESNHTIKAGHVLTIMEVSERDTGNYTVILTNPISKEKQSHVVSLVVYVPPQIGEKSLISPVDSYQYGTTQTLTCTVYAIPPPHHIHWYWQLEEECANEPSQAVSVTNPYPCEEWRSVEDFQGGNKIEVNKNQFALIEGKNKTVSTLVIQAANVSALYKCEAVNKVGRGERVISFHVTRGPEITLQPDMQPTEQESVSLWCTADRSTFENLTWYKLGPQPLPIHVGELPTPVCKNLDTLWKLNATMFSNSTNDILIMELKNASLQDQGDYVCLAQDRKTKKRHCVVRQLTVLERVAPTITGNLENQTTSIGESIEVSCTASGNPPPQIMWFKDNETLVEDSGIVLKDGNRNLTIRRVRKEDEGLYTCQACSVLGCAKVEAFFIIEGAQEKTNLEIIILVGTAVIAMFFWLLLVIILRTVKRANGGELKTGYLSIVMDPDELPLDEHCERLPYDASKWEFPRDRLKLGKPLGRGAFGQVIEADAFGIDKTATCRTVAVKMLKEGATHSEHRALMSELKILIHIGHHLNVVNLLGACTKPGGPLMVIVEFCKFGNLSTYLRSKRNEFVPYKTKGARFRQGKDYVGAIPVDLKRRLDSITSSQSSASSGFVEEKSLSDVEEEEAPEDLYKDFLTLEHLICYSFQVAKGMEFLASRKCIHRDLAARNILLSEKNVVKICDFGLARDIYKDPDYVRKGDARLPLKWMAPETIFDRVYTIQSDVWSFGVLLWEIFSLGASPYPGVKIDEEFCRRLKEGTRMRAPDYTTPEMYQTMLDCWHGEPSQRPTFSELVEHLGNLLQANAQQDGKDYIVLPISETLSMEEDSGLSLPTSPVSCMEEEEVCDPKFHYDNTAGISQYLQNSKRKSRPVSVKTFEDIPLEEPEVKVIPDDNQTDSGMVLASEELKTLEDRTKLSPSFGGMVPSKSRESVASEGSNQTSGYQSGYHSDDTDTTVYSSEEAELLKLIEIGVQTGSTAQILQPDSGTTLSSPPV
Sequence of AMPK (A2/B1/G3) (P54646 whole entry): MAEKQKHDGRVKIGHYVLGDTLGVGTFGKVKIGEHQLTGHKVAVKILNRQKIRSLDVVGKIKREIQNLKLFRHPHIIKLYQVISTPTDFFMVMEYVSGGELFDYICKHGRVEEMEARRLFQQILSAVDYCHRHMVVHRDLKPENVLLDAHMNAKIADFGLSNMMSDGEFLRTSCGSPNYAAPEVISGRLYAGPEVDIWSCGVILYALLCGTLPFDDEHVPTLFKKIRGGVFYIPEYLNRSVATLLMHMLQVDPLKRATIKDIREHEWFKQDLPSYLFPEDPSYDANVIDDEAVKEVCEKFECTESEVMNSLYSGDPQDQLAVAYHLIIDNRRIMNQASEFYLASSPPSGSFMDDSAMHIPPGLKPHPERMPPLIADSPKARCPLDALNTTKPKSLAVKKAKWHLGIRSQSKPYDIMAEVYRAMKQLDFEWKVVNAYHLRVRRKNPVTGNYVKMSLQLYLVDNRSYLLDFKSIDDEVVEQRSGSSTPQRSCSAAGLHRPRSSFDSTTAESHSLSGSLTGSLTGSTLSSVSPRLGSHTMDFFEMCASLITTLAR
Sequence of AMPK (A2/B1/G3) (Q9Y478 whole entry partner): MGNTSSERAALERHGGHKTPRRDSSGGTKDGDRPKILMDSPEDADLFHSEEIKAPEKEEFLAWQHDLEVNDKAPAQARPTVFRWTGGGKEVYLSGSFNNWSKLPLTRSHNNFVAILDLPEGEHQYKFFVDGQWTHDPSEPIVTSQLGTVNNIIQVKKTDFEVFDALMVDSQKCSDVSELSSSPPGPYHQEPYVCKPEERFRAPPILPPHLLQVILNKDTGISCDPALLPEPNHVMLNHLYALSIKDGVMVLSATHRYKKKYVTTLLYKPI
Sequence of AMPK (A2/B1/G3) (Q9UGI9 whole entry partner): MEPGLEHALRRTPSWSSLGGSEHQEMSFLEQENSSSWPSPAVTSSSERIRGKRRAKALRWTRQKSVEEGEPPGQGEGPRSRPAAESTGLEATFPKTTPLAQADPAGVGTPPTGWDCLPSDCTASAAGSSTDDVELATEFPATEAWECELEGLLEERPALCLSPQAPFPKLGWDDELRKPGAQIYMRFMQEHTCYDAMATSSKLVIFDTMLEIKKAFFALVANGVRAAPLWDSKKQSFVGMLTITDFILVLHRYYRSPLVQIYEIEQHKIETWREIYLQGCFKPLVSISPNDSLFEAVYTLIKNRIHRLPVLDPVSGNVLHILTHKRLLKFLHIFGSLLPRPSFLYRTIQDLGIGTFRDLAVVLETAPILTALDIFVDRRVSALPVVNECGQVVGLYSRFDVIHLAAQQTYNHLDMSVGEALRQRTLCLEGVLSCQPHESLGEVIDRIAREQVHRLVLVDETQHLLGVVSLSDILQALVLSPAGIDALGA
Sequence of MAPKAPK5/PRAK (Q8IW41 whole entry): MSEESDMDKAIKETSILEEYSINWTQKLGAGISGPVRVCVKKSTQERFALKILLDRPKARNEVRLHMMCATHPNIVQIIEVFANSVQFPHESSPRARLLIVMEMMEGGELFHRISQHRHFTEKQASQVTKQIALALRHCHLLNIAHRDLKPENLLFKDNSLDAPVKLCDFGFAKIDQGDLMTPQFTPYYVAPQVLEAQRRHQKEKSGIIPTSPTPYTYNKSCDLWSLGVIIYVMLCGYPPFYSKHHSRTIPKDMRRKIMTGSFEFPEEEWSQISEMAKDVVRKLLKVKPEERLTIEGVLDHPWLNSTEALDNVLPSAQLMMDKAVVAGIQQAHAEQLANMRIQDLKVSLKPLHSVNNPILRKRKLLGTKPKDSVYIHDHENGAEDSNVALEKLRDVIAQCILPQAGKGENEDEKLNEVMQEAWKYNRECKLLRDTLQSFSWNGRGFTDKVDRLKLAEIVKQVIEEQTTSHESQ
Sequence of MSK2/RPS6KA4 (O75676 whole entry): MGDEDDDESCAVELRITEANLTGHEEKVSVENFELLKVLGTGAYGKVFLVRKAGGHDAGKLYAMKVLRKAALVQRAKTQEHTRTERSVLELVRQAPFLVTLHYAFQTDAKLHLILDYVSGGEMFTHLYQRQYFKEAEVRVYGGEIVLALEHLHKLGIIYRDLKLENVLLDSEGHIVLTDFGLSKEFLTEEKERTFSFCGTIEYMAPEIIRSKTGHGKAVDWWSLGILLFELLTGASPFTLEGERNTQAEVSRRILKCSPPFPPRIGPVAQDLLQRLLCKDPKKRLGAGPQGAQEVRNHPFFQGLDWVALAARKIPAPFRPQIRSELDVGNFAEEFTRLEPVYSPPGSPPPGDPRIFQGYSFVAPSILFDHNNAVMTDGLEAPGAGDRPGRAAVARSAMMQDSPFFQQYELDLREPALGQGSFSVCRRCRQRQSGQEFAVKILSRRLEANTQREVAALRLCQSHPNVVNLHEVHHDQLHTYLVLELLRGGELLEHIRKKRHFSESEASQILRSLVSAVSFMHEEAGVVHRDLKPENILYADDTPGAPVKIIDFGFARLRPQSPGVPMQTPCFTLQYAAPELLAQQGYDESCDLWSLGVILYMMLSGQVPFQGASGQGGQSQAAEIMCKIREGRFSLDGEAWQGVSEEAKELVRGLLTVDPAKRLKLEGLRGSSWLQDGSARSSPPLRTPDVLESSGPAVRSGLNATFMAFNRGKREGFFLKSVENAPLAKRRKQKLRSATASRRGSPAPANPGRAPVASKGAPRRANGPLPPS
Sequence of PBK/TOPK (Q96KB5 whole entry): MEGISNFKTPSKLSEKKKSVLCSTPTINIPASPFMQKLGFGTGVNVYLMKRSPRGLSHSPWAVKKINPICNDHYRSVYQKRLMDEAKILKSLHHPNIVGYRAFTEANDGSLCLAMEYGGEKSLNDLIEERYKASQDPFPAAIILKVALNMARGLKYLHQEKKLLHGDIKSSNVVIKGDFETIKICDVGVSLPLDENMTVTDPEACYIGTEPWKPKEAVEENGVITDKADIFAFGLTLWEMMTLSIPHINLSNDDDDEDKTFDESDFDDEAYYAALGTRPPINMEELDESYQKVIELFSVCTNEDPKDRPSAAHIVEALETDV
Sequence of PIM2 (Q9P1W9 whole entry): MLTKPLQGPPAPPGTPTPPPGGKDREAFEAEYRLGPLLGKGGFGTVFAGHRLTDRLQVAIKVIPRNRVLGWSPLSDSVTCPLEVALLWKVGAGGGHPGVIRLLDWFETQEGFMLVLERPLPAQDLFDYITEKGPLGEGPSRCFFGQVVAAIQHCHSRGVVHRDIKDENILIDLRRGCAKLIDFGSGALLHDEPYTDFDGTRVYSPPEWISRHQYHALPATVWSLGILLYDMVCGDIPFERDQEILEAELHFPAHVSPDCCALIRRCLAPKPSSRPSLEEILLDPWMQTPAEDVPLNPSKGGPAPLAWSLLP

For C#C[C@@](C)(c1ccc(Cl)cc1)c1csc(NC(=O)c2c(F)cc(N3CCNCC3)cc2F)n1 (stereo in doubt) [DF-003], the remaining activity at 10 µM (DYRK1B) was 88.5%, the remaining activity at 10 µM (CK1g2) was 121% and the remaining activity at 10 µM (MAPKAPK5/PRAK) was 93%. For the same compound, the remaining activity at 10 µM (BRK) was 81.2%, the remaining activity at 10 µM (KDR/VEGFR2) was 76% and the remaining activity at 10 µM (SIK1) was 99.8%. For the same compound, the remaining activity at 10 µM (MSSK1/STK23) was 84.2%, the remaining activity at 10 µM (MLK2/MAP3K10) was 67.5% and the remaining activity at 10 µM (CAMKK1) was 92.8%. The remaining activity at 10 µM (ERK7/MAPK15) was 83.5%, the CAVG ([1]; 3 mg/kg oral) was 75.6 ± 5.53 ng/mL and the CAVG ([1]; 5 mg/kg oral) was 164 ± 29.0 ng/mL. For the same compound, the “average time to Cmax (Tmax)” value ([1]; 3 and 5 mg/kg oral, 10th dose) was 2 to 2.67 h, the “DF-003 Conc. in tissues 24 hr after 10th dosing” value (from here on “DF-003 Conc. in tissues 24 hr”) ([1]; Cerebral Cortex, 3 mg/kg, individual animals) was 1358 and 1241 and 1263 and the “DF-003 Conc. in tissues 24 hr” value ([1]; Cerebral Cortex, 5 mg/kg, individual animals) was 2520 and 2846 and 2696. For the same compound, the “DF-003 Conc. in tissues 24 hr” value ([1]; Optic Nerve, 3 mg/kg, 6 optic nerves from 3 mice of same dosing group combined into one sample) was 1104, the “DF-003 Conc. in tissues 24 hr” value ([1]; Optic Nerve, 5 mg/kg, 6 optic nerves from 3 mice of same dosing group combined into one sample) was 1615 and the “DF-003 Conc. in tissues 24 hr” value ([1]; Retina, 3 mg/kg, individual animals) was 620 and 646 and 1356. For the same compound, the “DF-003 Conc. in tissues 24 hr” value ([1]; Retina, 5 mg/kg, individual animals) was 1351 and 1933 and 1171, the concentration at 0 h [1, 2] was 46.4 ng/mL and the concentration at 0.5 h [1, 2] was 78.6 ng/mL. The concentration at 1 h [1, 2] was 110 ng/mL, the concentration at 2 h [1, 2] was 123 ng/mL and the concentration at 4 h [1, 2] was 115 ng/mL. For the same compound, the concentration at 6 h [1, 2] was 92 ng/mL, the concentration at 8 h [1, 2] was 99.9 ng/mL and the concentration at 12 h [1, 2] was 73.9 ng/mL. It also gave a concentration at 24 h [1, 2] of 19.5 ng/mL, a concentration at 0 h [1, 3] of 142 ng/mL and a concentration at 0.5 h [1, 3] of 168 ng/mL. The concentration at 1 h [1, 3] was 228 ng/mL, the concentration at 2 h [1, 3] was 218 ng/mL and the concentration at 4 h [1, 3] was 238 ng/mL. The concentration at 6 h [1, 3] was 174 ng/mL, the concentration at 8 h [1, 3] was 162 ng/mL and the concentration at 12 h [1, 3] was 122 ng/mL. It also gave a concentration at 24 h [1, 3] of 45.6 ng/mL, an AUC ([1]; 3 mg/kg) of 1820 ± 132 ng·h/mL and a CL/F ([1]; 3 mg/kg) of 27.6 ± 1.94 mL/min/kg. The Cmax ([1]; 3 mg/kg) was 160 ng/mL, the Tmax ([1]; 3 mg/kg) was 2 h and the Vd/F ([1]; 3 mg/kg) was 18.3 ± 1.55 L/kg. The half-life ([1]; 3 mg/kg) was 7.69 h, the AUC ([1]; 5 mg/kg) was 3940 ± 697 ng·h/mL and the CL/F ([1]; 5 mg/kg) was 21.6 ± 4.11 mL/min/kg. For the same compound, the Cmax ([1]; 5 mg/kg) was 310 ng/mL, the Tmax ([1]; 5 mg/kg) was 2.67 ± 1.15 h and the Vd/F ([1]; 5 mg/kg) was 16.5 ± 3.68 L/kg. For the same compound, the half-life ([1]; 5 mg/kg) was 8.81 h, the remaining activity at 10 µM (JNK1) was 97.7% and the remaining activity at 10 µM (PIM2) was 87.6%. It also gave a remaining activity at 10 µM (FGFR3) of 136%, a remaining activity at 10 µM (IRR/INSRR) of 66.3% and a remaining activity at 10 µM (BMPR2) of 113%. It also gave a remaining activity at 10 µM (MSK2/RPS6KA4) of 59.7%, a remaining activity at 10 µM (AKT2) of 93.6% and a remaining activity at 10 µM (PBK/TOPK) of 90.5%. For the same compound, the remaining activity at 10 µM (DMPK) was 94.6%, the remaining activity at 10 µM (TAOK3/JIK) was 21.7% and the remaining activity at 10 µM (GRK7) was 114%. For the same compound, the remaining activity at 10 µM (LIMK2) was 85.2%, the remaining activity at 10 µM (MEK5) was 109% and the remaining activity at 10 µM (MNK2) was 90.7%. For the same compound, the remaining activity at 10 µM (PIM3) was 95.5%, the remaining activity at 10 µM (MARK1) was 104% and the remaining activity at 10 µM (DDR1) was 85.1%. For the same compound, the remaining activity at 10 µM (HCK) was 91%, the remaining activity at 10 µM (RIPK5) was 82% and the remaining activity at 10 µM (PKCepsilon) was 81.6%. For the same compound, the remaining activity at 10 µM (AMPK (A2/B1/G3)) was 87.3%.
